System: rabbit skeletal myofibrils (fast skeletal myofibrils)
Assay: Activation of fast skeletal myofibrils (PUMA assay, AC1.4)
Format: biochemical
Settings: calcium at pCa25, AC1.4 = concentration at which the compound increased the enzymatic activity
Outline: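 Detergent-washed rabbit psoas myofibrils (~90% fast fibers), calcium set to give 25% of maximal rate (pCa25). ATPase followed by pyruvate kinase/lactate dehydrogenase-coupled NADH oxidation, absorbance at 340 nm. PM12 buffer: 12 mM PIPES, 2 mM MgCl2, 1 mM DTT, pH 6.8.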

Row | SMILES | AC1.4 [µM]
1 | CC[C@H](C)[C@H]1C(=O)Nc2ccccc2CN1C(=O)c1ccc(C(=O)N2CC(O)C2)[nH]1 [Compound 180, (S)-3-((S)-sec-butyl)-4-(5-(3-hydroxyazetidine-1-carbonyl)-1H-pyrrole-2-carbonyl)-1,3,4,5-tetrahydro-2H-benzo[e][1,4]diazepin-2-one] | 0.10
2 | CC[C@H](C)[C@H]1C(=O)Nc2ccccc2CN1C(=O)c1cc2nccnc2[nH]1 [Compound 181, (S)-3-((S)-sec-butyl)-4-(5H-pyrrolo[2,3-b]pyrazine-6-carbonyl)-1,3,4,5-tetrahydro-2H-benzo[e][1,4]diazepin-2-one] | 0.04
3 | CC[C@H](C)[C@H]1C(=O)Nc2ccccc2CN1C(=O)c1cnn(CCO)c1N [Compound 182, (S)-4-(5-amino-1-(2-hydroxyethyl)-1H-pyrazole-4-carbonyl)-3-((S)-sec-butyl)-1,3,4,5-tetrahydro-2H-benzo[e][1,4]diazepin-2-one] | 0.07
4 | CC[C@H](C)[C@H]1C(=O)Nc2ccccc2CN1C(=O)CCN1CC[C@H](O)C1 [Compound 184, (S)-3-((S)-sec-butyl)-4-(3-((S)-3-hydroxypyrrolidin-1-yl)propanoyl)-1,3,4,5-tetrahydro-2H-benzo[e][1,4]diazepin-2-one] | 0.55
5 | CC[C@H](C)[C@H]1C(=O)Nc2ccccc2CN1C(=O)CCN1CC[C@@H](O)C1 [Compound 185, (S)-3-((S)-sec-butyl)-4-(3-((R)-3-hydroxypyrrolidin-1-yl)propanoyl)-1,3,4,5-tetrahydro-2H-benzo[e][1,4]diazepin-2-one] | 0.92
6 | CC[C@H](C)[C@H]1C(=O)Nc2ccccc2CN1C(=O)CCN1CCC[C@H]1C(N)=O [Compound 186, (S)-1-(3-((S)-3-((S)-sec-butyl)-2-oxo-1,2,3,5-tetrahydro-4H-benzo[e][1,4]diazepin-4-yl)-3-oxopropyl)pyrrolidine-2-carboxamide] | 2.18
7 | CC[C@H](C)[C@H]1C(=O)Nc2ccccc2CN1C(=O)CCN1CCC[C@@H]1C(N)=O [Compound 187, (R)-1-(3-((S)-3-((S)-sec-butyl)-2-oxo-1,2,3,5-tetrahydro-4H-benzo[e][1,4]diazepin-4-yl)-3-oxopropyl)pyrrolidine-2-carboxamide] | 1.39
8 | CC[C@H](C)[C@H]1C(=O)Nc2ccccc2CN1C(=O)[C@H]1CCCN1CCC(N)=O [Compound 188, 3-((R)-2-((S)-3-((S)-sec-butyl)-2-oxo-2,3,4,5-tetrahydro-1H-benzo[e][1,4]diazepine-4-carbonyl)pyrrolidin-1-yl)propanamide] | 3.46
9 | CC[C@H](C)[C@H]1C(=O)Nc2ccccc2CN1C(=O)c1cn(C)nn1 [Compound 189, (S)-3-((S)-sec-butyl)-4-(1-methyl-1H-1,2,3-triazole-4-carbonyl)-1,3,4,5-tetrahydro-2H-benzo[e][1,4]diazepin-2-one] | 0.10
10 | CC[C@H](C)[C@H]1C(=O)Nc2ccccc2CN1C(=O)c1ccnnc1 [Compound 190, (S)-3-((S)-sec-butyl)-4-(pyridazine-4-carbonyl)-1,3,4,5-tetrahydro-2H-benzo[e][1,4]diazepin-2-one] | 0.54
11 | CC[C@H](C)[C@H]1C(=O)Nc2ccccc2CN1C(=O)c1cncnc1 [Compound 191, (S)-3-((S)-sec-butyl)-4-(pyrimidine-5-carbonyl)-1,3,4,5-tetrahydro-2H-benzo[e][1,4]diazepin-2-one] | 0.19
12 | CC[C@H](C)[C@H]1C(=O)Nc2ccccc2CN1C(=O)c1cccnn1 [Compound 192, (S)-3-((S)-sec-butyl)-4-(pyridazine-3-carbonyl)-1,3,4,5-tetrahydro-2H-benzo[e][1,4]diazepin-2-one] | 0.19
13 | CC[C@H](C)[C@H]1C(=O)Nc2ccccc2CN1C(=O)[C@@H]1CC(=O)N(C)C1 [Compound 193, (S)-3-((S)-sec-butyl)-4-((R)-1-methyl-5-oxopyrrolidine-3-carbonyl)-1,3,4,5-tetrahydro-2H-benzo[e][1,4]diazepin-2-one] | 0.72
14 | CC[C@H](C)[C@H]1C(=O)Nc2ccccc2CN1C(=O)[C@H]1CC(=O)N(C)C1 [Compound 194, (S)-3-((S)-sec-butyl)-4-((S)-1-methyl-5-oxopyrrolidine-3-carbonyl)-1,3,4,5-tetrahydro-2H-benzo[e][1,4]diazepin-2-one] | 1.52
15 | CC[C@H](C)[C@H]1C(=O)Nc2ccccc2CN1C(=O)CNC(C)=O [Compound 195, N-(2-((S)-3-((S)-sec-butyl)-2-oxo-1,2,3,5-tetrahydro-4H-benzo[e][1,4]diazepin-4-yl)-2-oxoethyl)acetamide] | 1.84
16 | CC[C@H](C)[C@H]1C(=O)Nc2ccccc2CN1C(=O)[C@H](C)NC(C)=O [Compound 196, N-((S)-1-((S)-3-((S)-sec-butyl)-2-oxo-1,2,3,5-tetrahydro-4H-benzo[e][1,4]diazepin-4-yl)-1-oxopropan-2-yl)acetamide] | 2.09
17 | CC[C@H](C)[C@H]1C(=O)Nc2ccccc2CN1C(=O)[C@H]1CCCN1C(C)=O [Compound 197, (S)-4-(acetyl-D-prolyl)-3-((S)-sec-butyl)-1,3,4,5-tetrahydro-2H-benzo[e][1,4]diazepin-2-one] | 1.76

Row | SMILES | AC1.4 [µM]
18 | CC[C@H](C)[C@H]1C(=O)Nc2ccccc2CN1C(=O)[C@@H](C)NC(C)=O [Compound 198, N-((R)-1-((S)-3-((S)-sec-butyl)-2-oxo-1,2,3,5-tetrahydro-4H-benzo[e][1,4]diazepin-4-yl)-1-oxopropan-2-yl)acetamide] | 1.66
19 | CC[C@H](C)[C@H]1C(=O)Nc2ccccc2CN1C(=O)CC(C)O (stereo partly drawn) [Compound 199, (3S)-3-((S)-sec-butyl)-4-(3-hydroxybutanoyl)-1,3,4,5-tetrahydro-2H-benzo[e][1,4]diazepin-2-one] | 0.94
20 | C[C@@H](OCc1ccccc1)[C@H]1C(=O)Nc2ccccc2CN1C(=O)c1cnn(C)c1 [Compound 200, (S)-3-((R)-1-(benzyloxy)ethyl)-4-(1-methyl-1H-pyrazole-4-carbonyl)-1,3,4,5-tetrahydro-2H-benzo[e][1,4]diazepin-2-one] | 4.22
21 | CC[C@H](C)[C@H]1C(=O)Nc2ccccc2CN1C(=O)COc1ccccc1C(N)=O [Compound 201, 2-(2-((S)-3-((S)-sec-butyl)-2-oxo-1,2,3,5-tetrahydro-4H-benzo[e][1,4]diazepin-4-yl)-2-oxoethoxy)benzamide] | 0.05
22 | CC[C@H](C)[C@H]1C(=O)Nc2ccccc2CN1C(=O)Nc1ccc(NC(C)=O)nc1 [Compound 202, (S)-N-(6-acetamidopyridin-3-yl)-3-((S)-sec-butyl)-2-oxo-1,2,3,5-tetrahydro-4H-benzo[e][1,4]diazepine-4-carboxamide] | 0.17
23 | CC[C@H](C)[C@H]1C(=O)Nc2ccccc2CN1C(=O)NCCO [Compound 203, (S)-3-((S)-sec-butyl)-N-(2-hydroxyethyl)-2-oxo-1,2,3,5-tetrahydro-4H-benzo[e][1,4]diazepine-4-carboxamide] | 1.75
24 | CC[C@H](C)[C@H]1C(=O)Nc2ccccc2CN1C(=O)NCC(N)=O [Compound 204, (S)-N-(2-amino-2-oxoethyl)-3-((S)-sec-butyl)-2-oxo-1,2,3,5-tetrahydro-4H-benzo[e][1,4]diazepine-4-carboxamide] | 3.66
25 | CC[C@H](C)[C@H]1C(=O)Nc2ccccc2CN1C(=O)NCCC(N)=O [Compound 205, (S)-N-(3-amino-3-oxopropyl)-3-((S)-sec-butyl)-2-oxo-1,2,3,5-tetrahydro-4H-benzo[e][1,4]diazepine-4-carboxamide] | 1.58
26 | CC[C@H](C)[C@H]1C(=O)Nc2ccccc2CN1C(=O)NCC(=O)NC [Compound 206, (S)-3-((S)-sec-butyl)-N-(2-(methylamino)-2-oxoethyl)-2-oxo-1,2,3,5-tetrahydro-4H-benzo[e][1,4]diazepine-4-carboxamide] | 4.98
27 | CC[C@H](C)[C@H]1C(=O)Nc2ccccc2CN1C(=O)NC[C@H](O)CO [Compound 207, (S)-3-((S)-sec-butyl)-N-((S)-2,3-dihydroxypropyl)-2-oxo-1,2,3,5-tetrahydro-4H-benzo[e][1,4]diazepine-4-carboxamide] | 3.62
28 | CC[C@H](C)[C@H]1C(=O)Nc2ccccc2CN1C(=O)NC[C@@H](O)CO [Compound 208, (S)-3-((S)-sec-butyl)-N-((R)-2,3-dihydroxypropyl)-2-oxo-1,2,3,5-tetrahydro-4H-benzo[e][1,4]diazepine-4-carboxamide] | 2.70
29 | CC[C@H](C)[C@H]1C(=O)Nc2ccccc2CN1C(=O)N[C@@H]1CCNC1=O [Compound 209, (S)-3-((S)-sec-butyl)-2-oxo-N-((R)-2-oxopyrrolidin-3-yl)-1,2,3,5-tetrahydro-4H-benzo[e][1,4]diazepine-4-carboxamide] | 4.17
30 | CC[C@H](C)[C@H]1C(=O)Nc2ccccc2CN1C(=O)N[C@H]1CCNC1=O [Compound 210, (S)-3-((S)-sec-butyl)-2-oxo-N-((S)-2-oxopyrrolidin-3-yl)-1,2,3,5-tetrahydro-4H-benzo[e][1,4]diazepine-4-carboxamide] | 4.25
31 | CC[C@H](C)[C@H]1C(=O)Nc2ccccc2CN1C(=O)NCCNC(C)=O [Compound 211, (S)-N-(2-acetamidoethyl)-3-((S)-sec-butyl)-2-oxo-1,2,3,5-tetrahydro-4H-benzo[e][1,4]diazepine-4-carboxamide] | 2.92
32 | CC[C@H](C)[C@H]1C(=O)Nc2ccccc2CN1C(=O)NCCNC(N)=O [Compound 212, (S)-3-((S)-sec-butyl)-2-oxo-N-(2-ureidoethyl)-1,2,3,5-tetrahydro-4H-benzo[e][1,4]diazepine-4-carboxamide] | 1.27
33 | CC[C@H](C)[C@H]1C(=O)Nc2ccccc2CN1C(=O)NCC[S+](C)[O-] (stereo partly drawn) [Compound 213, (3S)-3-((S)-sec-butyl)-N-(2-(methylsulfinyl)ethyl)-2-oxo-1,2,3,5-tetrahydro-4H-benzo[e][1,4]diazepine-4-carboxamide] | 4.04
